Reference: the NIST ThermoML archive (doi:10.1016/j.tca.2016.06.023)

Tests used:
[1] = refractive index (Na D-line) (dimensionless); xn = mol fraction of the nth substance listed; settings: 81.5 kPa, Liquid, Standard Abbe refractometry
[2] = xn = mol fraction of the nth substance listed; settings: 81.5 kPa, Liquid, Vibrating tube method

Brc1ccccc1 [bromobenzene] + Clc1ccccc1
Settings	mass density, [2] [kg/m3]	refractive index, [1]
293.15 K, x2 = 0	1495.52	1.55981
293.15 K, x2 = 0.1004	1457.81	1.55614
293.15 K, x2 = 0.2188	1413.03	1.55183
293.15 K, x2 = 0.3025	1381.12	1.54881
293.15 K, x2 = 0.4005	1343.53	1.54531
293.15 K, x2 = 0.5003	1304.91	1.54178
293.15 K, x2 = 0.6014	1265.46	1.53824
293.15 K, x2 = 0.6985	1227.24	1.53488
293.15 K, x2 = 0.7976	1187.96	1.53149
293.15 K, x2 = 0.899	1147.37	1.52802
303.15 K, x2 = 0	1481.97	1.55442
303.15 K, x2 = 0.1004	1444.57	1.55075
303.15 K, x2 = 0.2188	1400.11	1.54645
303.15 K, x2 = 0.3025	1368.44	1.54341
303.15 K, x2 = 0.4004	1331.07	1.5399
303.15 K, x2 = 0.5002	1292.73	1.53635
303.15 K, x2 = 0.6014	1253.57	1.5328
303.15 K, x2 = 0.6985	1215.65	1.52943
303.15 K, x2 = 0.7975	1176.65	1.52602
303.15 K, x2 = 0.8989	1136.37	1.52252
313.15 K, x2 = 0	1468.41	1.5489
313.15 K, x2 = 0.1004	1431.29	1.54525
313.15 K, x2 = 0.2188	1387.2	1.54094
313.15 K, x2 = 0.3025	1355.72	1.53791
313.15 K, x2 = 0.4004	1318.65	1.53439
313.15 K, x2 = 0.5002	1280.55	1.53084
313.15 K, x2 = 0.6014	1241.67	1.52729
313.15 K, x2 = 0.6985	1204.01	1.52391
313.15 K, x2 = 0.7975	1165.32	1.52049
313.15 K, x2 = 0.8989	1125.28	1.51697
323.15 K, x2 = 0	1454.85	1.54319
323.15 K, x2 = 0.1004	1418.03	1.53956
323.15 K, x2 = 0.2188	1374.22	1.53528
323.15 K, x2 = 0.3025	1342.96	1.53225
323.15 K, x2 = 0.4004	1306.14	1.52874
323.15 K, x2 = 0.5002	1268.32	1.5252
323.15 K, x2 = 0.6014	1229.71	1.52165
323.15 K, x2 = 0.6985	1192.33	1.51827
323.15 K, x2 = 0.7975	1153.89	1.51484
323.15 K, x2 = 0.8989	1114.13	1.51133
333.15 K, x2 = 0	1441.22	1.53742
333.15 K, x2 = 0.1004	1404.71	1.53383
333.15 K, x2 = 0.2188	1361.19	1.52957
333.15 K, x2 = 0.3025	1330.15	1.52657
333.15 K, x2 = 0.4004	1293.58	1.52308
333.15 K, x2 = 0.5002	1256.04	1.51956
333.15 K, x2 = 0.6014	1217.71	1.51602
333.15 K, x2 = 0.6985	1180.59	1.51266
333.15 K, x2 = 0.7975	1142.42	1.50924
333.15 K, x2 = 0.8989	1102.93	1.50574

Brc1ccccc1 [bromobenzene] + O=[N+]([O-])c1ccccc1
Settings	mass density, 293.15 K [kg/m3]	mass density, 303.15 K [kg/m3]	mass density, 313.15 K [kg/m3]	mass density, 323.15 K [kg/m3]	mass density, 333.15 K [kg/m3]	refractive index, 293.15 K	refractive index, 303.15 K	refractive index, 313.15 K	refractive index, 323.15 K	refractive index, 333.15 K
[1], x1 = 0.0998	–	–	–	–	–	1.55317	1.54834	1.54352	1.53852	1.53345
[1], x1 = 0.2013	–	–	–	–	–	1.55394	1.54905	1.54416	1.53909	1.534
[1], x1 = 0.2985	–	–	–	–	–	1.55468	1.54973	1.54477	1.53962	1.53452
[1], x1 = 0.3968	–	–	–	–	–	1.55542	1.55041	1.54538	1.54015	1.53503
[1], x1 = 0.505	–	–	–	–	–	1.55622	1.55115	1.54603	1.54072	1.53559
[1], x1 = 0.5974	–	–	–	–	–	1.5569	1.55177	1.54658	1.5412	1.53605
[1], x1 = 0.6987	–	–	–	–	–	1.55764	1.55245	1.54718	1.54171	1.53654
[1], x1 = 0.8018	–	–	–	–	–	1.55838	1.55313	1.54777	1.54223	1.53704
[1], x1 = 0.8963	–	–	–	–	–	1.55906	1.55375	1.54831	1.54269	1.53748
[1], x1 = 1	–	–	–	–	–	1.55981	1.55442	1.5489	1.54319	1.53742
[2], x1 = 0.0998	1232.31	1221.95	1211.59	1201.25	1190.87	–	–	–	–	–
[2], x1 = 0.2013	1262.07	1251.35	1240.6	1229.85	1219.06	–	–	–	–	–
[2], x1 = 0.2985	1290.56	1279.49	1268.39	1257.29	1246.12	–	–	–	–	–
[2], x1 = 0.3968	1319.31	1307.88	1296.44	1284.95	1273.45	–	–	–	–	–
[2], x1 = 0.505	1350.9	1339.07	1327.25	1315.36	1303.45	–	–	–	–	–
[2], x1 = 0.5974	1377.81	1365.65	1353.48	1341.27	1329.01	–	–	–	–	–
[2], x1 = 0.6987	1407.3	1394.76	1382.18	1369.62	1357.01	–	–	–	–	–
[2], x1 = 0.8018	1437.33	1424.41	1411.45	1398.53	1385.53	–	–	–	–	–
[2], x1 = 0.8963	1464.97	1451.69	1438.42	1425.19	1411.84	–	–	–	–	–
[2], x1 = 1	1495.52	1481.97	1468.41	1454.85	1441.22	–	–	–	–	–

Clc1ccccc1 [chlorobenzene] + O=[N+]([O-])c1ccccc1
Settings	mass density, 293.15 K [kg/m3]	mass density, 303.15 K [kg/m3]	mass density, 313.15 K [kg/m3]	mass density, 323.15 K [kg/m3]	mass density, 333.15 K [kg/m3]	refractive index, 293.15 K	refractive index, 303.15 K	refractive index, 313.15 K	refractive index, 323.15 K	refractive index, 333.15 K
[1], x1 = 0.1792	–	–	–	–	–	1.54704	1.54217	1.53739	1.53251	1.52761
[1], x1 = 0.2018	–	–	–	–	–	1.54638	1.5415	1.53671	1.53184	1.52695
[1], x1 = 0.2994	–	–	–	–	–	1.54356	1.53864	1.53383	1.52896	1.52412
[1], x1 = 0.3967	–	–	–	–	–	1.54078	1.53584	1.531	1.52612	1.52129
[1], x1 = 0.491	–	–	–	–	–	1.53813	1.53317	1.52829	1.52338	1.51851
[1], x1 = 0.5425	–	–	–	–	–	1.5367	1.53172	1.52682	1.52186	1.51697
[1], x1 = 0.6479	–	–	–	–	–	1.53381	1.52879	1.52381	1.51876	1.51377
[1], x1 = 0.7553	–	–	–	–	–	1.53092	1.52581	1.52072	1.51554	1.5104
[1], x1 = 0.8748	–	–	–	–	–	1.52777	1.52252	1.51723	1.51185	1.50652
[1], x1 = 1	–	–	–	–	–	1.52455	1.51902	1.51346	1.50781	1.50223
[2], x1 = 0.1792	1186.15	1176.1	1166.03	1155.95	1145.83	–	–	–	–	–
[2], x1 = 0.2018	1184.02	1173.95	1163.86	1153.76	1143.62	–	–	–	–	–
[2], x1 = 0.2994	1174.79	1164.64	1154.47	1144.27	1134.02	–	–	–	–	–
[2], x1 = 0.3967	1165.55	1155.32	1145.05	1134.75	1124.4	–	–	–	–	–
[2], x1 = 0.491	1156.55	1146.24	1135.88	1125.49	1115.04	–	–	–	–	–
[2], x1 = 0.5425	1151.59	1141.23	1130.83	1120.39	1109.89	–	–	–	–	–
[2], x1 = 0.6479	1141.41	1130.96	1120.45	1109.9	1099.31	–	–	–	–	–
[2], x1 = 0.7553	1130.91	1120.36	1109.75	1099.09	1088.41	–	–	–	–	–
[2], x1 = 0.8748	1119.07	1108.4	1097.7	1086.93	1076.14	–	–	–	–	–
[2], x1 = 1	1106.49	1095.71	1084.86	1073.96	1063.01	–	–	–	–	–
